≈ marks a conversion by molar mass, not a printed value.
Test system: Mycobacterium tuberculosis variant bovis BCG
Experiment: microbe, parasite or virus in culture
Type: functional

Compound	MIC90 [µM]
CN1CCc2c(cccc2NC(=O)c2cc(Br)cc3c2OCC3)C1	9.8 (≈ 3.8 µg/mL)
NCCCOc1cccc2c(-c3ccncc3)c(-c3cccc(NC(=O)Nc4ccccc4)c3)nn12	7.1 (≈ 3.4 µg/mL)
COc1ccc(S(=O)(=O)N(C)C)cc1C(=O)N[C@H]1CCN2CC(c3ccccc3)C[C@H]2C1 (stereo partly specified)	0.4 (≈ 0.183 µg/mL)
COc1ccc(Nc2ccccc2NC(=O)c2ccc(O)nc2)cc1	9 (≈ 3.02 µg/mL)
O=C(Nc1nnc(-c2ccccc2)o1)c1cccc(C(F)(F)F)c1	3.6 (≈ 1.2 µg/mL)
O=C(CCSc1ccc(Cl)cc1)Nc1nc(-c2ccccn2)cs1	3.9 (≈ 1.47 µg/mL)
COc1ccc(CCC(=O)Nc2ccccc2Nc2ccc(OC)cc2)cc1	3.9 (≈ 1.47 µg/mL)
O=C(COc1ccccc1F)Nc1nc(-c2ccccn2)cs1	8.7 (≈ 2.87 µg/mL)
O=C(NNC(=O)c1cccs1)c1csc(COc2ccccc2Cl)n1	5.3 (≈ 2.09 µg/mL)
COc1ccccc1C(=O)N(Cc1cccnc1)Cc1cc2c(C)cc(C)cc2nc1Cl	5.9 (≈ 2.63 µg/mL)
CN(C)CCOc1ccc2c(c1)N(C(=O)Cc1ccc(Cl)c(Cl)c1)CC2	9.9 (≈ 3.89 µg/mL)
Cc1cc(C)cc(Oc2ncnc(N3CCCC3CN)c2C)c1 (stereo unspecified)	7.5 (≈ 2.34 µg/mL)
COc1ccccc1NC(=O)CN(Cc1ccco1)C(=O)c1cccc(-n2cnnn2)c1	7.7 (≈ 3.33 µg/mL)
CN(Cc1ccccc1)c1ncc(-c2ccc(CNCC3CCCO3)cc2)cn1 (stereo unspecified)	8.7 (≈ 3.38 µg/mL)
O=C(Nc1nc(-c2ccccn2)cs1)C1(c2ccc(Cl)cc2)CC1	3.3 (≈ 1.17 µg/mL)
O=C(NNC(=O)c1cccs1)c1ccc(OCc2ccccc2)cc1	9.9 (≈ 3.49 µg/mL)
CCN(CC)CCCn1c(Sc2ccnc(N3CCN(c4ccncc4)CC3)n2)nnc1-c1ccccn1	2.4 (≈ 1.27 µg/mL)
CCN(Cc1ccc(Cl)s1)C(=O)CSc1nc(NC)c2ccccc2n1	9.1 (≈ 3.7 µg/mL)
O=C(CCc1cc2ccccc2o1)NNC(=O)c1cccs1	5.1 (≈ 1.6 µg/mL)
Cc1nc2ccccn2c1C(=O)Nc1ccc(C(C)(C)C)cc1	4.9 (≈ 1.51 µg/mL)
COc1ccc(CN2CCC3(CCc4ccccc43)CC2)cc1OCc1ccccc1	2.4 (≈ 0.993 µg/mL)
Cc1cc(NC(=O)COc2ccc(Cl)cc2)n(-c2nc(C)c(C)c(=O)[nH]2)n1	4.8 (≈ 1.86 µg/mL)
CC(C)(C)c1ccc(C(=O)Nc2nnc(-c3ccco3)o2)cc1	4.3 (≈ 1.34 µg/mL)

Compound	MIC90 [µM]
CS(=O)(=O)N1CCN(c2ccccc2NC(=O)C(Cl)(Cl)Cl)CC1	3.9 (≈ 1.56 µg/mL)
CC(C)CCN(c1ccc(C#N)c(Cl)c1)[C@H]1CCNC1	2 (≈ 0.584 µg/mL)
CN1CC[C@@H](Oc2cc(-c3noc(-c4ccc(Br)s4)n3)ccc2C(F)(F)F)C1	8.4 (≈ 3.98 µg/mL)
O=C(NC1=NCCS1)c1sc2cc(F)ccc2c1Cl	8.2 (≈ 2.58 µg/mL)
CCc1nc(N2CCNCC2)c2c(C)nn(-c3ccc(OC)cc3)c2n1	1.1 (≈ 0.388 µg/mL)
O=C(Nc1nnc(-c2ccc(Cl)cc2)o1)c1cccc(C(F)(F)F)c1	5.3 (≈ 1.95 µg/mL)
CC1Sc2ccc(C(=O)N3CCCCC3c3nc4ccccc4s3)cc2NC1=O (stereo unspecified)	9.8 (≈ 4.15 µg/mL)
c1ccc(CCNc2cc(-c3ccccc3)nc3nncn23)cc1	8.1 (≈ 2.55 µg/mL)
O=C(Nc1nc(-c2ccccn2)cs1)c1cc2c(s1)CCCC2	5.5 (≈ 1.88 µg/mL)
CC(=O)Nc1ccc(S(=O)(=O)Nc2ccc(N3CCCCC3)cc2)cc1	5.2 (≈ 1.94 µg/mL)
CN(Cc1ccccc1)c1ccc2nnc(-c3ccccc3)n2n1	9.9 (≈ 3.12 µg/mL)
COCc1nc(N2CCNCC2)c2c(C)nn(-c3cccc(Cl)c3)c2n1	1.9 (≈ 0.708 µg/mL)
Cc1cc(C(=O)Nc2nc(-c3ccccn3)cs2)no1	4.6 (≈ 1.32 µg/mL)
COc1ccc(NC(=O)N2CCCN(c3nc4c(C)c(C)ccc4cc3C#N)CC2)cc1	5.3 (≈ 2.28 µg/mL)
Cc1cc2cc(C)c(NCCN)nc2cc1C	5.7 (≈ 1.31 µg/mL)
COc1ccc(-c2nsc(NC(=O)COc3ccc(C)cc3)n2)cc1OC	4.7 (≈ 1.81 µg/mL)
CC(=O)N(C)c1ccc(Oc2ccnc(NCc3c(C)cccc3C)n2)cc1	9.5 (≈ 3.58 µg/mL)
O=C(Nc1nc(-c2ccccn2)cc2ccccc12)c1cccc(Cl)c1	3 (≈ 1.08 µg/mL)
Cc1cc(C)c(C)c(OCCCCNCc2ccco2)c1	7.8 (≈ 2.24 µg/mL)
COc1ccc(C(=O)Nc2nnc(-c3ccc4c(c3)CCCC4)o2)cc1	3 (≈ 1.05 µg/mL)
O=C(NC1CCN(Cc2ccsc2)C1)c1sccc1-c1cccc(F)c1 (stereo unspecified)	7.3 (≈ 2.82 µg/mL)
CS(=O)(=O)c1ccc(C(=O)Nc2nc(-c3ccccn3)cs2)cc1	3.6 (≈ 1.29 µg/mL)
Cc1ccc2sc(N(CCCn3ccnc3)C(=O)c3cccs3)nc2c1C	9.5 (≈ 3.77 µg/mL)
